# Experimental data taken from patent US4187292A, “Antibiotics produced from the microorganism nocardice” (Takeda Chemical Industries, Ltd., priority 1977, dated 1980).
# Tests used:
# Alcaligenes faecalis = experiment: Antimicrobial activity, serial dilution method; format: cell-based; details: IFO 13111; Trypticase-soy agar
# Procedure: (§1) The antimicrobial activities of Antibiotics C-14919 E-1 and E-2 were assayed by the serial dilution method using Trypticase-soy agar (BBL), glucose nutrient agar and glycerol nutrient agar as test media (Table 5). In addition, the activities against Tetrahymena pyriformis W were determined by the serial dilution method using the assay medium [Proteose-peptone 20 g, yeast extract 1 g, glucose 2 g, distilled water 1000 ml, 1 M-phosphate buffer (pH 7.0) 10 ml].
# Bacillus brevis = experiment: Antimicrobial activity, serial dilution method; format: cell-based; details: IFO 3331; Trypticase-soy agar
# Procedure: as §1
# Bacillus cereus = experiment: Antimicrobial activity, serial dilution method; format: cell-based; details: IFO 3514; Trypticase-soy agar
# Procedure: as §1
# Bacillus megaterium = experiment: Antimicrobial activity, serial dilution method; format: cell-based; details: IFO 12108; Trypticase-soy agar
# Procedure: as §1
# Bacillus pumilus = experiment: Antimicrobial activity, serial dilution method; format: cell-based; details: IFO 3813; Trypticase-soy agar
# Procedure: as §1
# Bacillus subtilis 6633 = experiment: Antimicrobial activity, serial dilution method; format: cell-based; details: IFO 3134; Trypticase-soy agar
# Procedure: as §1
# Bacillus subtilis PCI219 = experiment: Antimicrobial activity, serial dilution method; format: cell-based; details: IFO 3513; Trypticase-soy agar
# Procedure: as §1
# Escherichia coli K-12 = experiment: Antimicrobial activity, serial dilution method; format: cell-based; details: IFO 3301; Trypticase-soy agar
# Procedure: as §1
# Micrococcus flavus = experiment: Antimicrobial activity, serial dilution method; format: cell-based; details: IFO 3242; Trypticase-soy agar
# Procedure: as §1
# Proteus vulgaris = experiment: Antimicrobial activity, serial dilution method; format: cell-based; details: IFO 3045; Trypticase-soy agar
# Procedure: as §1
# Pseudomonas aeruginosa = experiment: Antimicrobial activity, serial dilution method; format: cell-based; details: IFO 3080; Trypticase-soy agar
# Procedure: as §1
# Salmonella typhimurium = experiment: Antimicrobial activity, serial dilution method; format: cell-based; details: IFO 12529; Trypticase-soy agar
# Procedure: as §1
# Sarcina lutea = experiment: Antimicrobial activity, serial dilution method; format: cell-based; details: IFO 3232; Trypticase-soy agar
# Procedure: as §1
# Serratia marcescens = experiment: Antimicrobial activity, serial dilution method; format: cell-based; details: IFO 3046; Trypticase-soy agar
# Procedure: as §1
# [1] = tested on: Staphylococcus aureus 209P; experiment: Antimicrobial activity, serial dilution method; format: cell-based; details: IFO 12732; Trypticase-soy agar
# Procedure: as §1
# Candida albicans [2] = experiment: Antimicrobial activity, serial dilution method (Trypticase-soy agar); format: cell-based; details: IFO 0583
# Procedure: as §1
# Aspergillus niger = experiment: Antimicrobial activity, serial dilution method; format: cell-based; details: IFO 4066; Glucose nutrient agar
# Procedure: as §1
# (§2) **Glucose nutrient agar
# Candida krusei = experiment: Antimicrobial activity, serial dilution method; format: cell-based; details: IFO 1395; Glucose nutrient agar
# Procedure: as §1, §2
# Candida pseudotropicalis = experiment: Antimicrobial activity, serial dilution method; format: cell-based; details: IFO 0617; Glucose nutrient agar
# Procedure: as §1, §2
# Candida tropicalis = experiment: Antimicrobial activity, serial dilution method; format: cell-based; details: IFO 1400; Glucose nutrient agar
# Procedure: as §1, §2
# Candida utilis = experiment: Antimicrobial activity, serial dilution method; format: cell-based; details: IFO 0619; Glucose nutrient agar
# Procedure: as §1, §2
# Candida = experiment: Antimicrobial activity, serial dilution method; format: cell-based; details: IFO 1396; Glucose nutrient agar
# Procedure: as §1, §2
# Cryptococcus neoformans = experiment: Antimicrobial activity, serial dilution method; format: cell-based; details: IFO 0410; Glucose nutrient agar
# Procedure: as §1, §2
# Hormodendrum pedrosoi = experiment: Antimicrobial activity, serial dilution method; format: cell-based; details: IFO 6071; Glucose nutrient agar
# Procedure: as §1, §2
# Microsporum canis = experiment: Antimicrobial activity, serial dilution method; format: cell-based; details: IFO 7863; Glucose nutrient agar
# Procedure: as §1, §2
# Microsporum cookei = experiment: Antimicrobial activity, serial dilution method; format: cell-based; details: IFO 8303; Glucose nutrient agar
# Procedure: as §1, §2
# Penicillium chrysogenum = experiment: Antimicrobial activity, serial dilution method; format: cell-based; details: IFO 4626; Glucose nutrient agar
# Procedure: as §1, §2
# Saccharomyces cerevisiae = experiment: Antimicrobial activity, serial dilution method; format: cell-based; details: IFO 0209; Glucose nutrient agar
# Procedure: as §1, §2
# Trychophyton rubrum = experiment: Antimicrobial activity, serial dilution method; format: cell-based; details: IFO 5467; Glucose nutrient agar
# Procedure: as §1, §2
# Candida albicans [3] = experiment: Antimicrobial activity, serial dilution method (Glucose nutrient agar); format: cell-based; details: IFO 0583
# Procedure: as §1, §2
# Mycobacterium avium = experiment: Antimicrobial activity, serial dilution method; format: cell-based; details: Glycerol nutrient agar
# Procedure: as §1
# (§3) ***Glycerol nutrient agar
# Mycobacterium phlei = experiment: Antimicrobial activity, serial dilution method; format: cell-based; details: Glycerol nutrient agar
# Procedure: as §1, §3
# Tetrahymena pyriformis W = experiment: Activity against Tetrahymena pyriformis W, serial dilution method; format: cell-based; details: Proteose-peptone solution, pH 7.0
# Procedure: as §1
# ****Proteose-peptone solution
# [4] = Acute toxicity test in mice; format: in vivo; details: intraperitoneal administration
# Description: The assumed LD50 as determined by intraperitoneal administration of C-14919 E-1 and E-2 in an acute toxicity test using mice as test animals are as follows.
# P388 leukemia = experiment: Therapeutic activity against P388 leukemia in mice; format: in vivo
# Procedure: The therapeutic activity (intraperitoneally administered for a consecutive days) of C-14919 E-1 and E-2 against P388 leukemia in mice (1×10^6 cells/animal, mouse, itraperitoneally transplanted) was investigated. The antitumour activity in terms of the extension of life spans was 144% at the dose level of 5 mg/kg/day.
# Solubility = format: physicochemical
# [5] = Acid, neutral or basic nature / lipophilicity; format: physicochemical
# Stability in solution = format: physicochemical
# [6] = tested on: Gram-positive bacteria, fungi and yeasts; experiment: Antimicrobial spectrum (summary of Table 5); format: cell-based; details: antimicrobial spectrum of Table 5
# Procedure: as §1
compound,measurement,setting,value
COC1C[C@H](C)[C@@H](OC)C2=CC(=O)C=C(NC(=O)/C(C)=C/C=C\[C@H](C)C(OC(N)=O)/C(C)=C/[C@@H](C)[C@@H]1OC)C2=O (stereo partly shown) [C-14919 E-1],MIC,Alcaligenes faecalis,> 100 µg/mL
same,MIC,Bacillus brevis,50 µg/mL
same,MIC,Bacillus cereus,> 100 µg/mL
same,MIC,Bacillus megaterium,50 µg/mL
same,MIC,Bacillus pumilus,50 µg/mL
same,MIC,Bacillus subtilis 6633,50 µg/mL
same,MIC,Bacillus subtilis PCI219,100 µg/mL
same,MIC,Escherichia coli K-12,> 100 µg/mL
same,MIC,Micrococcus flavus,50 µg/mL
same,MIC,Proteus vulgaris,> 100 µg/mL
same,MIC,Pseudomonas aeruginosa,> 100 µg/mL
same,MIC,Salmonella typhimurium,> 100 µg/mL
same,MIC,Sarcina lutea,50 µg/mL
same,MIC,Serratia marcescens,> 100 µg/mL
same,MIC,[1],> 100 µg/mL
same,MIC,Candida albicans [2],25 µg/mL
same,MIC,Aspergillus niger,100 µg/mL
same,MIC,Candida krusei,> 100 µg/mL
same,MIC,Candida pseudotropicalis,100 µg/mL
same,MIC,Candida tropicalis,> 100 µg/mL
same,MIC,Candida utilis,> 100 µg/mL
same,MIC,Candida,50 µg/mL
same,MIC,Cryptococcus neoformans,> 100 µg/mL
same,MIC,Hormodendrum pedrosoi,> 100 µg/mL
same,MIC,Microsporum canis,> 100 µg/mL
same,MIC,Microsporum cookei,> 100 µg/mL
same,MIC,Penicillium chrysogenum,50 µg/mL
same,MIC,Saccharomyces cerevisiae,100 µg/mL
same,MIC,Trychophyton rubrum,> 100 µg/mL
same,MIC,Candida albicans [3],50 µg/mL
same,MIC,Mycobacterium avium,> 100 µg/mL
same,MIC,Mycobacterium phlei,> 100 µg/mL
same,MIC,Tetrahymena pyriformis W,10 µg/mL
same,assumed LD50,[4],50 to 100 mg/kg
same,antitumour activity in terms of the extension of life spans,"P388 leukemia; 5 mg/kg/day, intraperitoneally, consecutive days, P388 1×10^6 cells/animal i.p. transplanted",144%
same,life-extending effect upon tumour-bearing mammals,P388 leukemia; e.g. mouse,life-extending effect
same,Solubility in acetone,Solubility; acetone,Soluble
same,Solubility in benzene,Solubility; benzene,Sparingly soluble
same,Solubility in butanol,Solubility; butanol,Soluble
same,Solubility in chloroform,Solubility; chloroform,Soluble
same,Solubility in diethyl ether,Solubility; diethyl ether,Sparingly soluble
same,Solubility in dimethylsulfoxide,Solubility; dimethylsulfoxide,Readily soluble
same,Solubility in ethanol,Solubility; ethanol,Soluble
same,Solubility in ethyl acetate,Solubility; ethyl acetate,Soluble
same,Solubility in hexane,Solubility; hexane,Insoluble
same,Solubility in methanol,Solubility; methanol,Soluble
same,Solubility in methyl isobutyl ketone,Solubility; methyl isobutyl ketone,Soluble
same,Solubility in petroleum ether,Solubility; petroleum ether,Insoluble
same,Solubility in water,Solubility; water,Insoluble
same,"Acid, neutral or basic",[5],a neutral substance
same,lipophilicity,[5],lipophyl
same,Stability,"Stability in solution; 80° C., 1 hr.",unstable
same,Stability,"Stability in solution; Room temp., basic solution/conditions",Unstable
same,Stability,"Stability in solution; Room temp., neutral and weakly acidic solutions/conditions",Stable
same,antimicrobial activity,[6],"display activity against Gram-positive bacteria, fungi and yeasts"
